Measured values from patent publication US20260092085A1, “SYNTHETIC TRIPLEX PEPTIDE NUCLEIC ACID-BASED INHIBITORS FOR CANCER THERAPY” (University of Connecticut, priority 2022, published 2026).

What was measured:
[1] = test system: SUDHL-2 cells; experiment: Cell viability by trypan blue assay, SUDHL-2; format: cell-based; conditions: SUDHL-2, in comparison to PBS treated control cells
Protocol: (§1) Cell viability was performed using trypan blue-based assay (n=3 technical triplicate), data represented as mean±(SEM), * represents the statistical analysis were performed relative to Scr-γtcPNA-155 and ♦ represent analysis performed relative to PNA-155. *p<0.05, **p<0.01, ***p<0.001 and ****p<0.0001, ♦p<0.05, ♦♦p<0.01, unpaired two-tailed t-test was used for statistical analysis. The experiment was repeated three times and in triplicate.
(§2) Cell viability was performed using trypan blue-based assay (n=3), data represented as mean±standard error mean (SEM), *p<0.05, **p<0.01. Unpaired two-tailed t-test was used for statistical analysis.
(§3) Cell viability was performed using trypan blue-based assay (n=3), data represented as mean±standard error mean (SEM).
(§4) Cell viability by trypan blue assay: Diffused large B cell lymphoma (DLBCL) cell lines like SUDHL-2 (ATCC® CRL-2956™) and SUDHL-5 (ATCC® CRL-2958™) cells were purchased from ATCC (Virginia, USA). The cells were regularly tested for Mycoplasma contamination using MycoAlert™ Mycoplasma detection kit (Lonza). All the cells used in the experiment were passaged less than 8 times. 10,000 U2932, SUDHL-5, or SUDHL-2 cells were plated in a 96 well plate. The cells were treated with different doses (500 nM, 1000 nM, 2000 nM and 4000 nM) of PNA-155, gamma tcPNA-155 or Scr-γtcPNA-155 for 48 hrs in an incubator (37° C. and 5% CO2). The dead cells were marked with trypan blue. Further counting was performed using an automated cell counter (Bio-rad).

[2] = test system: U2932 cells; experiment: Cell viability by trypan blue assay, U2932; format: cell-based, human; conditions: U2932, in comparison to PBS treated control cells
Protocol: as §1, §2, §3, §4

[3] = test system: U2932 subcutaneous tumors; experiment: Tumor growth in U2932 derived xenograft model; format: in vivo, NSG mice; conditions: intra-tumoral injections days 0, 7, 14
Protocol: Mouse tumor xenograft: Female NSG mice (NOD.Cg-Prkdcscid Il2rgtm1Wjl/SzJ, strain 005557) weighing 20-23 g were procured from Jackson laboratories. 1×10^7 U2932 cells suspended in RPMI-1640 medium were injected subcutaneously in the right and left flank of 6-week-old NSG mice. The mice developed a small bump in 2 weeks. When the tumor volume reached 100-200 mm^3, the mice were randomly assigned to the treatment group (n=6 per group).
(§5) RNA and Protein extraction from tumor samples: The mice were injected intra-tumorally with 1 mg kg-1 dose of PNA-155, γtcPNA-155, γPNA-155, Scr-γtcPNA-155 or were untreated. The injections were repeated two additional times after 1 week each. The length, breadth, and depth of the tumors were measured daily using a vernier caliper. The mice were euthanized when the tumor volumes reached 2000 mm^3. The resected tumor sections were finely minced using a sterile blade and suspended in dissociation media (4 ml) comprising of RPMI-1640, 1.2 mg/ml dispase, and 0.5 mg/ml collagenase for 90 mins at 500 rpm at 37° C. The dissociated tumors were washed with buffer saline at 2500 rpm (4 mins) at 4° C. and then suspended in 0.25% trypsin for 4 mins at room temperature. RPMI 1640 media was added to the trypsinized tumor mass, and the cells were passed through a 70 um filter. The cells were centrifuged at 2500 rpm for 4 mins at 4° C. The cell pellet was then suspended in 1×RBC lysis buffer (Sigma) and incubated on ice for 10 mins. PBS was added to the cells and the cells were passed through a 40 um filter. The cells were centrifuged at 2500 rpm for 4 mins at 4° C. The cell pellet was resuspended in 0.5% BSA in PBS. The mouse cells were removed from the tumor cells using a mouse cell depletion kit (Miltenyi Biotec) according to the manufacturer's protocol. The enriched tumor cells from each tumor sample were divided into two fractions. RNA for gene expression analysis was extracted from one tumor fraction by the same procedure as mentioned earlier. The protein for western blot analysis was extracted from the second fraction using the method described above.
For the efficacy study, each mouse received three intra-tumoral injections of either γtcPNA-155, γPNA-155 or PNA-155 on days 0, 7, 14. We noticed that the control and scrambled treated tumors reached 2000 mm^3 much faster during our study, so we could not inject a third time in these mice. […] In contrast, as stated earlier, there was no effect on the control and scrambled PNA control on the tumor volume.

[4] = test system: PBMC cells; experiment: Safety assessment by trypan blue assay in PBMC; format: cell-based; conditions: 500-4000 nM, 48 hours
Protocol: Control is PBS treated PBMC cells. n=3, data represented as mean±standard error mean (SEM).
Safety assessment by trypan blue assay […] blood mononuclear cells (PBMC) (ATCC® PCS-800-011™) were purchased from ATCC (Virginia, USA). The cells were regularly tested for Mycoplasma contamination using MycoAlert™ Mycoplasma detection kit (Lonza). All the cells used in the experiment were passaged less than 2 times. 10,000 PBMC cells were seeded in a 96 well plate. The cells were treated with 500 nM, 1000 nM, 2000 nM and 4000 nM PNA-155 and γtcPNA-155 for 48 hrs in an incubator. The dead cells were examined with trypan blue and further counted using an automated cell counter (Bio-rad).

[5] = test system: SUDHL-5 cells; experiment: Cell viability by trypan blue assay, SUDHL-5; format: cell-based; conditions: SUDHL-5, in comparison to PBS treated control cells
Protocol: as §1, §2, §3, §4

[6] = test system: miR-155; experiment: miR-155 gene expression in U2932 tumor samples after in vivo treatment; parameters: species or system NSG mice; conditions: U2932 xenograft
Protocol: (§6) FIGS. 22A-D show in vivo gene expression and protein level analysis. (22A) miR-155 gene expression levels in U2932 tumor samples after in vivo treatment with indicated PNAs. Data was normalized with average control U6 (n=4, data represented as mean±standard error mean). ***p<0.001 (22B) Gene expression level of downstream target genes of miR-155: MCL1 in U2932 tumor samples after treatment with total 3 mg kg-1 dose of Scr-γtcPNA-155, PNA-155, γPNA-155 and γtcPNA-155 and normalized with average control GAPDH (n=3, data represented as mean±SEM), unpaired two-tailed t-test was performed for analysis). *p<0.05, **p<0.01 (22C) Representative western blot of Mcl-1 protein and its quantification (n=3 technical replicate) in U2932 tumor samples treated with total 3 mg kg-1 dose of Scr-γtcPNA-155, PNA-155 and γtcPNA-155. Data is represented as mean±SEM and unpaired two-tailed t-test was performed for analysis. *p<0.05. The relative protein levels were determined from the band intensity using ImageJ software and normalized relative to loading control and treatment control. (22D) Gene expression level of tumor suppressor proteins (FOXO3A, CUX1, SOCS1, CSF1R, JARID2, SHIP1, PICALM, PDCD4, BACH1, CASP3) in U2932 tumor samples after treatment with total 3 mg kg-1 dose of Scr-γtcPNA-155, PNA-155, γPNA-155 and γtcPNA-155 and normalized with average control GAPDH (n=3, data represented as mean±SEM, unpaired two-tailed t-test was performed for statistical analysis). *p<0.05, **p<0.01.
as §5, with “The mouse cells were removed from the tumor cells using a mouse cell depletion kit (Miltenyi Biotec) according to the manufacturer's protocol. The enriched tumor cells from each tumor sample were divided into two fractions. RNA for gene expression analysis was extracted from one tumor fraction by the same procedure as mentioned earlier. The protein for western blot analysis was extracted from the second fraction using the method described above.” left out

[7] = test system: miR-155 downstream genes; experiment: Downstream gene expression and protein levels in U2932 tumor samples; format: in vivo, NSG mice; conditions: U2932 xenograft
Protocol: as §6
Data is represented as mean±SEM and unpaired t-test was used for statistical analysis *p<0.05. The relative protein levels were determined from the band intensity using ImageJ software and normalized relative to loading control and treatment control.
Data is represented as mean±SEM and unpaired t-test was used for statistical analysis.
Data is represented as mean±SEM and unpaired t-test was used for statistical analysis. The relative protein levels were determined from the band intensity using ImageJ software and normalized relative to loading control and treatment control.
as §5

Scr-γtcPNA-155: scrambled γtcPNA-155 synthesized as a control, SEQ ID NO: 4 (ACNTGCCATTNCACGAACNCT; gamma PNA backbone; scramble sequence; misc_feature 1 Arg-Arg-adenine-thymine-pseudoisocytosine-thymine -adenine-11-amino-3,6,9-trioxaundecanoic acid covalently linked to the backbone; modified_base 3 OTHER; n is pseudoisocytosine; modified_base 11 OTHER; misc_feature 21 Arg-Arg covalently linked to the backbone; modified_base 19 OTHER; modified_base 1..21 OTHER; peptid) [reference compound]
effect on cell viability [1]: did not notice any effect on cell viability
effect on cell viability [2]: did not notice any effect on cell viability
tumor growth / tumor volume [3]: no effect
viability of PBMC cell lines [4]: do not cause any non-specific effects
effect on cell viability [5]: did not notice any effect on cell viability
miR-155 expression level in tumors (change) [6]: did not observe a change
alteration in gene expression in tumors [7]: did not notice any alteration
Mcl-1 protein level in tumors ([7]; western blot): did not notice any alteration
